Test results reported in patent publication US12310936B2, “Pharmaceutical compositions for the treatment of cancer” (Seleq Oy, priority 2018, dated 2025).

Tests used:
HCC cells = test: Modulation of SMC cytotoxicity by agents that favor beta-elimination; settings: more prominent together with overexpression of KYAT1
Native HCC cells = test: HCC cell viability with SMC in the presence of alfaketoacid analogues, native HCC cells; assay type: cell-based; settings: IC50 of SMC in the presence of the labelled alfaketoacid analogue, relative to PPA treated HCC cells (=100)
Procedure: (§1) Normal hepatocytes and malignant hepatocytes (HCC) were incubated in the presence of various concentrations of SMC. After 72 h, the ATP content of lysed cells, which is proportional to the number of viable cells, was measured using a luminescence-based CellTiter Glo Kit (Promega) according to manufacturer's protocol using a FLx100 Luminometer (BioTek).

KYAT induced cells = test: HCC cell viability with SMC in the presence of alfaketoacid analogues, KYAT induced cells; assay type: cell-based; settings: IC50 of SMC in the presence of the labelled alfaketoacid analogue, relative to untreated KYAT induced cells
Procedure: as §1

human KYAT1 = test: Selenol production by mutated KYAT1 using SMC as a substrate; assay type: biochemical; settings: mutant versus wild type KYAT1
Description: The crystal structure of human KYAT1 has been determined for several complexes. The complex of KYAT1 with the cofactor PLP and the inhibitor L-Phe was used to create molecular models of Seleno-methyl Cystein (SMC) in complex with KYAT1 (FIG. 1). Our approach has been to identify residues that can be mutated in order to enhance beta-elimination of SMC, resulting in increased selenol production. This can be done by changing the substrate specificity of KYAT1 from kynurenine to SMC, or by changing kinetics of reprotonation of Calpha in the substrate. Several residues were mutated to check their potential involvement into the selenol formation.

Molecule	effect of the agent on the cytotoxicity of SMC (HCC cells)	SMC IC50 (percentage of control) (Native HCC cells)	selenol production by KYAT1 using SMC as a substrate (human KYAT1)	also measured
Cc1ncc(COP(=O)(O)O)c(C=O)c1O [PLP, pyridoxal 5′-phosphate]	increase the cytotoxicity of SMC			
O=C(O)C(=O)Cc1ccccc1 [PPA, phenyl pyruvic acid]	increase the cytotoxicity of SMC	100 percentage of control		
COC(=O)CCC(=O)C(=O)OC [αKG, dimethyl-2-oxoglutarate]	increase the cytotoxicity of SMC			
indole pyruvic acid [IPA]		38 percentage of control		SMC IC50 (percentage of control) (KYAT induced cells): 35 percentage of control
Y101H: mutant human kynurenine aminotransferase I, tyrosine to histidine substitution at position 101 (protein, listed as Homo sapiens) MAKQLQARRLDGIDYNPWVEFVKLASEHDVVNLGQGFPDFPPPDFAVEAFQHAVSGDFMLNQYTKTFGYPPLTKILASFFGELLGQEIDPLRNVLVTVGGHGALFTAFQALVDEGDEVIIIEPFFDCYEPMTMMAGGRPVFVSLKPGPIQNGELGSSSNWQLDPMELAGKFTSRTKALVLNTPNNPLGKVFSREELELVASLCQQHDVVCITDEVYQWMVYDGHQHISIASLPGMWERTLTIGSAGKTFSATGWKVGWVLGPDHIMKHLRTVHQNSVFHCPTQSQAAVAESFEREQLLFRQPSSYFVQFPQAMQRCRDHMIRSLQSVGLKPIIPQGSYFLITDISDFKRKMPDLPGAVDEPYDRRFVKWMIKNKGLVAIPVSIFYSVPHQKHFDHYIRFCFVKDEATLQAMDEKLRKWKVEL			higher selenol production	
H279F: mutant human kynurenine aminotransferase I, histidine to phenylalanine substitution at position 279 (protein, listed as Homo sapiens) MAKQLQARRLDGIDYNPWVEFVKLASEHDVVNLGQGFPDFPPPDFAVEAFQHAVSGDFMLNQYTKTFGYPPLTKILASFFGELLGQEIDPLRNVLVTVGGYGALFTAFQALVDEGDEVIIIEPFFDCYEPMTMMAGGRPVFVSLKPGPIQNGELGSSSNWQLDPMELAGKFTSRTKALVLNTPNNPLGKVFSREELELVASLCQQHDVVCITDEVYQWMVYDGHQHISIASLPGMWERTLTIGSAGKTFSATGWKVGWVLGPDHIMKHLRTVHQNSVFFCPTQSQAAVAESFEREQLLFRQPSSYFVQFPQAMQRCRDHMIRSLQSVGLKPIIPQGSYFLITDISDFKRKMPDLPGAVDEPYDRRFVKWMIKNKGLVAIPVSIFYSVPHQKHFDHYIRFCFVKDEATLQAMDEKLRKWKVEL			higher selenol production	
